Measured values as given in BindingDB's records for doi:10.1016/j.ejmech.2018.08.069 (Kanazawa University, 2018).

Assay: Antagonist activity at AR in human LNCAP cells assessed as reduction in DHT-induced cell growth treated for every 2 days for 4 days by hemocytometry

| SMILES | IC50 [µM] |
| --- | --- |
| O=c1cc(-c2ccccc2O)oc2ccccc12 [2-(2-Hydroxyphenyl)-4H-chromen-4-one (3d)] | > 10 |
| O=C1CC(c2ccccc2O)Oc2ccccc21 (stereo not given) [2-(2-Hydroxy-phenyl)-chroman-4-one] | 6.4 |

Continued, values first:

| IC50 [µM] | SMILES |
| --- | --- |
| > 10 | COc1ccc(O)c(C(=O)/C=C/c2ccccc2OC)c1 |
| 3.74 | O=C(/C=C/c1ccccc1O)c1cc(Cl)ccc1O |
| 9.11 | CC(C)Oc1ccccc1/C=C/C(=O)c1cc(Br)ccc1O |
